In PubChem BioAssay AID2060484 (Molecular Pharmacology Branch, DTP, NCI, 2025):

System: SUM149PT spheroids with HUVEC/MSC, viability
Experiment: Anticancer human tumor SUM149PT cell line growth inhibition [GQUAD];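 note: spheroids exposed to drugs for seven days before readout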;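 for viability, T/C: percent viability relative to DMSO vehicle control taken as 100%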
Details: for IC50: curve of first compound; for viability, T/C: stronger effect = lower value
How it was run: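 Viability of tumor cells grown as complex spheroids with endothelial and stromal cells, exposed to drug combinations. Top concentration at or near clinical Cmax (else 10 microM), diluted in half-log increments.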

[1] = second compound 0.0316 µM, first compound 0.0316 µM
[2] = second compound 0.0316 µM, first compound 0.1 µM
[3] = second compound 0.0316 µM, first compound 0.316 µM
[4] = second compound 0.0316 µM, first compound 1 µM
[5] = second compound 0.0316 µM, first compound 3.16 µM
[6] = second compound 0.0316 µM, first compound 10 µM
[7] = second compound 0.1 µM, first compound 0.0316 µM
[8] = second compound 0.1 µM, first compound 0.1 µM
[9] = second compound 0.1 µM, first compound 0.316 µM
[10] = second compound 0.1 µM, first compound 1 µM
[11] = second compound 0.1 µM, first compound 3.16 µM
[12] = second compound 0.1 µM, first compound 10 µM
[13] = second compound 0.316 µM, first compound 0.0316 µM
[14] = second compound 0.316 µM, first compound 0.1 µM
[15] = second compound 0.316 µM, first compound 0.316 µM
[16] = second compound 0.316 µM, first compound 1 µM
[17] = second compound 0.316 µM, first compound 3.16 µM
[18] = second compound 0.316 µM, first compound 10 µM
[19] = second compound 1 µM, first compound 0.0316 µM
[20] = second compound 1 µM, first compound 0.1 µM
[21] = second compound 1 µM, first compound 0.316 µM
[22] = second compound 1 µM, first compound 1 µM
[23] = second compound 1 µM, first compound 3.16 µM
[24] = second compound 1 µM, first compound 10 µM
[25] = second compound 3.16 µM, first compound 0.0316 µM
[26] = second compound 3.16 µM, first compound 0.1 µM
[27] = second compound 3.16 µM, first compound 0.316 µM
[28] = second compound 3.16 µM, first compound 1 µM
[29] = second compound 3.16 µM, first compound 3.16 µM
[30] = second compound 3.16 µM, first compound 10 µM
[31] = second compound 10 µM, first compound 0.0316 µM
[32] = second compound 10 µM, first compound 0.1 µM
[33] = second compound 10 µM, first compound 0.316 µM
[34] = second compound 10 µM, first compound 1 µM
[35] = second compound 10 µM, first compound 3.16 µM
[36] = second compound 10 µM, first compound 10 µM

SMILES: O=C(NO)c1cnc(N2CCN(S(=O)(=O)c3ccc4ccccc4c3)CC2)nc1 + Cc1[nH]c2ccc(F)cc2c1-c1nc2c3cccnc3c3ncccc3c2[nH]1
- IC50 (second compound 0.0316 µM): 381 nM
- IC50 (second compound 0.1 µM): 450 nM
- IC50 (second compound 0.316 µM): 539 nM
- IC50 (second compound 1 µM): 617 nM
- IC50 (second compound 3.16 µM): 660 nM
- IC50 (second compound 10 µM): 801 nM
- viability, T/C [1]: 100%
- viability, T/C [2]: 97.1%
- viability, T/C [3]: 59.4%
- viability, T/C [4]: 1.37%
- viability, T/C [5]: 0.22%
- viability, T/C [6]: 2.18%
- viability, T/C [7]: 102%
- viability, T/C [8]: 102%
- viability, T/C [9]: 67.8%
- viability, T/C [10]: 9.4%
- viability, T/C [11]: 0.18%
- viability, T/C [12]: 0.21%
- viability, T/C [13]: 104%
- viability, T/C [14]: 101%
- viability, T/C [15]: 78%
- viability, T/C [16]: 17.8%
- viability, T/C [17]: 0.15%
- viability, T/C [18]: 1.25%
- viability, T/C [19]: 105%
- viability, T/C [20]: 98.1%
- viability, T/C [21]: 78.8%
- viability, T/C [22]: 30.1%
- viability, T/C [23]: 0.16%
- viability, T/C [24]: 0.2%
- viability, T/C [25]: 107%
- viability, T/C [26]: 101%
- viability, T/C [27]: 74.2%
- viability, T/C [28]: 38.8%
- viability, T/C [29]: 0.2%
- viability, T/C [30]: 0.4%
- viability, T/C [31]: 106%
- viability, T/C [32]: 93.5%
- viability, T/C [33]: 79.4%
- viability, T/C [34]: 47.4%
- viability, T/C [35]: 0.29%
- viability, T/C [36]: 0.25%

SMILES: COc1ccc([C@@H](O)c2cc(-c3ncnc4cc(N5CCOCC5)ccc34)c(F)cc2Cl)nn1 + CN(C)c1ccc(Nc2c3ccc(NC(=O)CCN4CCCC4)cc3nc3cc(NC(=O)CCN4CCCC4)ccc23)cc1
- IC50 (second compound 0.0316 µM): 1870 nM
- IC50 (second compound 0.1 µM): 1170 nM
- IC50 (second compound 0.316 µM): 1160 nM
- IC50 (second compound 1 µM): 1020 nM
- IC50 (second compound 3.16 µM): 960 nM
- IC50 (second compound 10 µM): 844 nM
- viability, T/C [1]: 103%
- viability, T/C [2]: 86%
- viability, T/C [3]: 73.1%
- viability, T/C [4]: 63%
- viability, T/C [5]: 38.2%
- viability, T/C [6]: 32.1%
- viability, T/C [7]: 89.1%
- viability, T/C [8]: 92.2%
- viability, T/C [9]: 80.6%
- viability, T/C [10]: 52.4%
- viability, T/C [11]: 34.3%
- viability, T/C [12]: 28.8%
- viability, T/C [13]: 88.1%
- viability, T/C [14]: 87.4%
- viability, T/C [15]: 71.5%
- viability, T/C [16]: 53.7%
- viability, T/C [17]: 34.3%
- viability, T/C [18]: 29.1%
- viability, T/C [19]: 91.5%
- viability, T/C [20]: 82.8%
- viability, T/C [21]: 77.2%
- viability, T/C [22]: 50.3%
- viability, T/C [23]: 31.8%
- viability, T/C [24]: 29.2%
- viability, T/C [25]: 82.6%
- viability, T/C [26]: 80%
- viability, T/C [27]: 75.3%
- viability, T/C [28]: 46.8%
- viability, T/C [29]: 33.7%
- viability, T/C [30]: 22.9%
- viability, T/C [31]: 79.9%
- viability, T/C [32]: 78.8%
- viability, T/C [33]: 73.1%
- viability, T/C [34]: 44.2%
- viability, T/C [35]: 31.4%
- viability, T/C [36]: 20.7%

SMILES: O=c1[nH]cc(F)c(=O)[nH]1 + Cc1cnc(CNC(=O)c2c(=O)c3ccc(N4CCCN(C)CC4)nc3n3c2sc2ccccc23)cn1
- IC50 (second compound 0.0316 µM): 2630 nM
- IC50 (second compound 0.1 µM): 2120 nM
- IC50 (second compound 0.316 µM): 1500 nM
- IC50 (second compound 1 µM): < 31.6 nM
- IC50 (second compound 3.16 µM): < 31.6 nM
- IC50 (second compound 10 µM): < 31.6 nM
- viability, T/C [1]: 86.5%
- viability, T/C [2]: 86.4%
- viability, T/C [3]: 99.3%
- viability, T/C [4]: 75.6%
- viability, T/C [5]: 46.1%
- viability, T/C [6]: 34.8%
- viability, T/C [7]: 73.6%
- viability, T/C [8]: 64%
- viability, T/C [9]: 82.7%
- viability, T/C [10]: 67.2%
- viability, T/C [11]: 40.8%
- viability, T/C [12]: 32%
- viability, T/C [13]: 51.1%
- viability, T/C [14]: 61.2%
- viability, T/C [15]: 55%
- viability, T/C [16]: 55.2%
- viability, T/C [17]: 40.5%
- viability, T/C [18]: 31.2%
- viability, T/C [19]: 43.4%
- viability, T/C [20]: 43.5%
- viability, T/C [21]: 51.5%
- viability, T/C [22]: 40.9%
- viability, T/C [23]: 35.8%
- viability, T/C [24]: 29.4%
- viability, T/C [25]: 38.2%
- viability, T/C [26]: 36.2%
- viability, T/C [27]: 38.7%
- viability, T/C [28]: 36.5%
- viability, T/C [29]: 36%
- viability, T/C [30]: 30.3%
- viability, T/C [31]: 18.6%
- viability, T/C [32]: 9.86%
- viability, T/C [33]: 31.9%
- viability, T/C [34]: 31.5%
- viability, T/C [35]: 11%
- viability, T/C [36]: 2.12%
